{"source": "patent US10647680B2", "about": "“Urea compound, preparation method therefor and medical use thereof” (Ancureall Pharmaceutical (Shanghai) Co., Ltd., priority 2016, dated 2020)", "assay_type_in_all_cases": "cell-based", "key": {"[1]": {"system": "Kasumi-1 (c-Kit N822K mutant type)", "assay": "In vitro growth inhibition (GI50), Kasumi-1", "conditions": "Homo sapiens, Cell lines of leukemia, read-out: GI 50 Kasumi-1 Kit (N822K)", "summary_of_the_method": "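Cells in RPMI1640 with 10% FBS, seeded at 5–10×10^4 cells/mL, exposed next day to compound at 5,000 nM down to 0.01 nM (2- or 10-fold dilutions, ≤1% solvent) for 3–5 days at 37 °C. CCK8 absorbance at 450 nm, growth rate relative to pre-treatment and solvent controls, GI50 from concentration–growth curve.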"}, "[2]": {"system": "NCI-H2228 (expressing EML4-ALK fusion gene)", "assay": "In vitro growth inhibition (GI50), NCI-H2228", "conditions": "Homo sapiens", "source_text": "(§1) Tumor cell line is an effective cell model for studying the inhibition of tumor cell growth or proliferation in vitro. In the present invention, a representative tumor cell line was selected to determine the cell growth inhibition activity of the present compound. All cell lines used were from ATCC, DSMZ, and the Cell Bank of the Chinese Academy of Sciences. Cell culture conditions and methods were in accordance with the requirements of each cell line. Cells were subcultured in vitro for no more than 3 passages each time, and as required, single-clone purification and identification of cell lines could be carried out.\n(§2) The cell culture media used were RPMI1640 (Gibco), MEM (Gibco), McCOY'S5A (Gibco), and IMDM (Gibco). The complete medium was prepared by supplement with 5˜20% fetal calf serum (Gibco), 1% double-antibiotics (10000 units/mL penicillin and 10000 units/mL), 2 mM glutamine or 1 mM sodium pyruvate, respectively.\nHuman non-small cell lung cancer cell line NCI-H2228 (expressing EML4-ALK fusion gene, ATCC) and human anaplastic large cell lymphoma cell line Karpas-299 (expressing NPM-ALK fusion gene, ATCC) were cultured in complete medium comprising 1×RPMI1640 (10% FBS), respectively. Neuroblastoma cell line SH-SY5Y (expressing ALK F1174L mutant protein, Shanghai Cell Bank, Chinese Academy of Sciences) was cultured in MEM complete medium (1×MEM, 10% FBS, 1% NEAA, 1 mM sodium pyruvate).\n(§3) Adherent cells were digested with 0.25% pancreatin-EDTA (Gibco). The suspension cells were collected by centrifugation. The supernatant was discarded and the cell pellet was resuspended and counted. Different cell concentrations (5˜10×10^4 cells/mL) were prepared according to the growth cycle of each cell line and then seeded on a 96-well plate (Corning), 100 μL/well. The cells were incubated overnight at 37° C., 5% CO2. The compounds were added to the cells on the second day with 2 wells in parallel. The final concentration of organic solvent shall not exceed 1%. The cells were continually incubated for 3 to 5 days, and then subjected to MTT assay.\n(§4) The compound of the present invention and the control compound were dissolved in DMSO (Sigma) respectively, with the purity of more than 98%. The compound was stored in a concentration of 10 mM at −20° C. and diluted to 2- or 10-fold series prior to use.\n(§5) Dojindo CCK8 reagent kit was used as MTT assay. THERMO […] FC meter was used as microplate reader.\n(§6) For adherent cells, culture medium was removed and immediately replaced with the fresh prepared medium which contains 10% CCK8 reagent (100 μL/well). For the suspension cells, CCK8 was directly added to 10% of the final concentration. The cells were continually incubated for 1˜4 h. When a dark yellow color could be observed in the solvent control wells, the absorbance value at OD450 nm was measured and the cell growth rate was calculated according to the following formula: Cell Growth Rate (%)=100*(T−T0)/(C−T0) T=optical density of drug treatment cell well—optical density of blank control well; T0=optical density of cell well before drug treatment—optical density of blank control well; C=optical density of cell well of solvent control group—optical density of blank control well. The concentration value of 50% inhibition of cell growth (GI50) was calculated according to the drug concentration and cell growth rate curve. The experiment was independently repeated 1˜3 times, and subject to biological statistical analysis. 4. Experimental Results\nTumor cell growth inhibition test was performed by selecting representative compounds (compounds 4, 11, 12, 16, 27, 68, 71, 77, 79, 89 and 116 of the present invention). The initial concentration of the compound was 5,000 nM, then it was serially diluted by 2-fold or 10-fold to 0.01 nM. The GI50 value of each test compound was calculated according to the GI50 assay and calculation method. The experiments were repeated 1 to 3 times, and data were subjected to biological statistical analysis."}, "Calu-3 (HER2/ErbB2 amp)": {"system": "Calu-3 (HER2/ErbB2 amp)", "assay": "In vitro growth inhibition (GI50), Calu-3", "conditions": "Homo sapiens", "source_text": "as §1, §2\nHuman gastric cancer cell line NCI-N87 (HER2/ErbB2 amp, ATCC), human breast cancer cell line HCC1954 (HER2/ErbB2 amp, ATCC) and ZR-75-30 (HER2/ErbB2 amp, ATCC), human adenocarcinoma cell line AU565 (HER2/ErbB2 amp, ATCC), human lung squamous cell carcinoma cell line NCI-H2170 (HER2/ErbB2 amp, ATCC), human bronchioalveolar adenocarcinoma cell line NCI-H1781 (HER2/ErbB2 Ins G776V,C mutant type, ATCC) were cultured with a 1×RPMI1640 complete medium (10% FBS), respectively. Human lung adenocarcinoma cell line Calu-3 (HER2/ErbB2 amp, ATCC) was cultured with 1×MEM, 10% FBS, 1% double antibody, 1% NEAA (Gibco), 2 mM glutamine and 1 mM sodium pyruvate. The human breast cancer cell line SK-BR-3 (HER2/ErbB2 amp, ATCC) was cultured with a McCOY'S5A complete medium (10% FBS).\nas §3, §4, §5, §6\nTumor cell growth inhibition test was performed by selecting representative compounds (compounds 4, 11, 12, 16, 27, 68, 71, 77, 79, 89 and 116 of the present invention). […]"}}}
{"smiles": "CC(C)(C)c1cc(NC(=O)Nc2ccc(-n3cnc4cc(OCCO)ccc43)cc2)no1", "note": "[Compound 11, 1-(5-tert-butyl-isoxazol-3-yl)-3-{4-[5-(2-hydroxy-ethoxyl)-benzimidazol-1-yl]-phenyl]-urea]", "values": [{"measurement": "GI50", "setting": "[1]", "result": "> 1000", "unit": "nM"}, {"measurement": "GI50", "setting": "[2]", "result": "> 2500", "unit": "nM"}, {"measurement": "GI50", "setting": "Calu-3 (HER2/ErbB2 amp)", "result": "> 2500", "unit": "nM"}]}
{"smiles": "COc1ccc2c(c1)ncn2-c1ccc(NC(=O)Nc2cc(C(C)(C)C)n[nH]2)cc1", "note": "[Compound 71, 1-(5-tert-butyl-2H-pyrazol-3-yl)-3-[4-(5-methoxyl-benzimidazol-1-yl)-phenyl]-urea]", "values": [{"measurement": "GI50", "setting": "[1]", "result": "> 1000", "unit": "nM"}, {"measurement": "GI50", "setting": "[2]", "result": "> 2500", "unit": "nM"}, {"measurement": "GI50", "setting": "Calu-3 (HER2/ErbB2 amp)", "result": "> 2500", "unit": "nM"}]}
{"smiles": "CC(C)(C)c1cc(NC(=O)Nc2ccc(-n3cnc4cc(O)ccc43)cc2)no1", "note": "[Compound 4, 1-(5-tert-butyl-isoxazol-3-yl)-3-[4-(5-hydroxy-benzimidazol-1-yl)-phenyl]-urea]", "values": [{"measurement": "GI50", "setting": "[1]", "result": "100 to 1000", "unit": "nM"}, {"measurement": "GI50", "setting": "[2]", "result": "> 2500", "unit": "nM"}, {"measurement": "GI50", "setting": "Calu-3 (HER2/ErbB2 amp)", "result": "> 2500", "unit": "nM"}]}
{"smiles": "COCCOc1ccc2c(c1)ncn2-c1ccc(NC(=O)Nc2cc(C(C)(C)C)n[nH]2)cc1", "note": "[Compound 77, 1-(5-tert-butyl-2H-pyrazol-3-yl)-3-{4-[5-(2-methoxyl-ethoxyl)-benzimidazol-1-yl]-phenyl}-urea]", "values": [{"measurement": "GI50", "setting": "[1]", "result": "> 1000", "unit": "nM"}, {"measurement": "GI50", "setting": "[2]", "result": "> 2500", "unit": "nM"}, {"measurement": "GI50", "setting": "Calu-3 (HER2/ErbB2 amp)", "result": "> 2500", "unit": "nM"}]}
{"smiles": "CC(C)(C)c1cc(NC(=O)Nc2ccc(-n3cnc4cc(OCCO)ccc43)cc2)[nH]n1", "note": "[Compound 79, 1-(5-tert-butyl-2H-pyrazol-3-yl)-3-{4-[5-(2-hydroxy-ethoxyl)-benzimidazol-1-yl]-phenyl]urea]", "values": [{"measurement": "GI50", "setting": "[1]", "result": "> 1000", "unit": "nM"}, {"measurement": "GI50", "setting": "[2]", "result": "> 2500", "unit": "nM"}, {"measurement": "GI50", "setting": "Calu-3 (HER2/ErbB2 amp)", "result": "> 2500", "unit": "nM"}]}
{"smiles": "CC(C)(C)c1cc(N)n(C(=O)Nc2ccc(-n3cnc4ccccc43)cc2)n1", "note": "[Compound 116, 5-amino-3-tert-butyl-pyrazol-1-carboxylic acid (4-benzimidazol-1-yl-phenyl)-amide]", "values": [{"measurement": "GI50", "setting": "[1]", "result": "> 1000", "unit": "nM"}, {"measurement": "GI50", "setting": "[2]", "result": "> 2500", "unit": "nM"}, {"measurement": "GI50", "setting": "Calu-3 (HER2/ErbB2 amp)", "result": "> 2500", "unit": "nM"}]}
{"smiles": "CC(C)(C)c1cc(NC(=O)Nc2ccc(-n3cnc4ccc(OCCN5CCOCC5)cc43)cc2)no1", "note": "[Compound 27, 1-(5-tert-butyl-isoxazol-3-yl)-3-{4-[6-(2morpholin-4-yl-ethoxyl)-benzimidazol-1-yl]-phenyl}-urea]", "values": [{"measurement": "GI50", "setting": "[1]", "result": "> 1000", "unit": "nM"}, {"measurement": "GI50", "setting": "[2]", "result": "> 2500", "unit": "nM"}, {"measurement": "GI50", "setting": "Calu-3 (HER2/ErbB2 amp)", "result": "> 2500", "unit": "nM"}]}
{"smiles": "CC(C)(C)c1cc(NC(=O)Nc2ccc(-n3cnc4ccccc43)cc2)[nH]n1", "note": "[Compound 68, 1-(4-benzimidazol-1-yl-phenyl)-3-(5-tert-butyl-2H-pyrazol-3-yl)-urea]", "values": [{"measurement": "GI50", "setting": "[1]", "result": "> 1000", "unit": "nM"}, {"measurement": "GI50", "setting": "[2]", "result": "> 2500", "unit": "nM"}, {"measurement": "GI50", "setting": "Calu-3 (HER2/ErbB2 amp)", "result": "> 2500", "unit": "nM"}]}
{"smiles": "CC(C)(C)c1cc(NC(=O)Nc2ccc(-n3cnc4cc(OCCN5CCOCC5)ccc43)cc2)no1", "note": "[Compound 16, 1-(5-tert-butyl-isoxazol-3-yl)-3-{4-[5-(2-morpholin-4-yl-ethoxyl)-benzimidazol-1-yl]-phenyl}-urea]", "values": [{"measurement": "GI50", "setting": "[1]", "result": "> 1000", "unit": "nM"}, {"measurement": "GI50", "setting": "[2]", "result": "> 2500", "unit": "nM"}, {"measurement": "GI50", "setting": "Calu-3 (HER2/ErbB2 amp)", "result": "> 2500", "unit": "nM"}]}
{"smiles": "CC(C)(C)c1cc(NC(=O)Nc2ccc(-n3cnc4cc(OCCN5CCOCC5)ccc43)cc2)[nH]n1", "note": "[Compound 89, 1-(5-tert-butyl-2H-pyrazol-3-yl)-3-{4-[5-(2-morpholin-4-yl-ethoxyl)-benzimidazol-1-yl]-phenyl}-urea]", "values": [{"measurement": "GI50", "setting": "[1]", "result": "100 to 1000", "unit": "nM"}, {"measurement": "GI50", "setting": "[2]", "result": "> 2500", "unit": "nM"}, {"measurement": "GI50", "setting": "Calu-3 (HER2/ErbB2 amp)", "result": "> 2500", "unit": "nM"}]}
